Assay results reported in patent publication US5422341A, “Motilin-like polypeptides with gastrointestinal motor stimulating activity” (Ohmeda Pharmaceutical Products Division Inc., priority 1993, dated 1995).
Where two headings read alike, the source gives them in different places. Square brackets hold non-standard residues; d marks the D form. Ends that are not written are not given here. Peptide text beside a SMILES is read from it. * marks the point of attachment. X1 = C[N+](C)(C)[C@@H](Cc1ccccc1)C(=O)*; NMe2Phe = CN(C)[C@@H](Cc1ccccc1)C(=O)*; NMeF = CN[C@@H](Cc1ccccc1)C(=O)O

How the values were obtained:
motilin receptor = target: T1, motilin receptor (Oryctolagus cuniculus, UniProt G1T803); experiment: Determination of motilin receptor binding affinity (displacement of [125I-Tyr7, Nle13]motilin(porcine)); parameters: species or system rabbit
T1 construct: from tissue; host or cells: rabbit antral smooth muscle membranes
Procedure: The motilin receptor binding affinity of the peptides of this invention was determined by using the general procedure of Bormans, Peelers and Vantrappen, Regul. […] Fitting was performed using the iterative least-squares procedure of the SAS-software package (SAS Institute, Inc., Cary, N.C., USA).

[1] = target: segments of rabbit duodenum (Oryctolagus cuniculus, UniProt G1T803); experiment: Rabbit duodenal smooth muscle strip tissue bath assay; format: cell-based; conditions: negative logarithm of the dose giving 50% of the maximal response to motilin; isotonic contraction of rabbit duodenum segments
Method in brief: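 Isotonic contraction of rabbit duodenal segments after 1 h equilibration and 10^-4 M acetylcholine challenge; cumulative compound curve over 10^-11 to 10^-4 M, then 10^-7 M motilin. Runs discarded if final acetylcholine response differed >5%. EC50 at 50% of maximal motilin response, reported as pEC50.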

[2] = format: in vitro ADME, hog; conditions: pH 7
Procedure: Like most small linear polypeptides, motilin is believed to be metabolized lo by the brush border cells of the kidney. Therefore, kidney homogenate was chosen as the model system for assessing the relative in vivo biostability of the peptides of this invention. All peptides to be studied were incubated in hog kidney (Pel Freeze, Inc., Rogers, Ark.) (2% w/v; final volume=4 ml; buffer=HEPES pH 7.0) at 25° C. Both initial substrate concentration and internal standard (Fmoc-Gly) concentration were 0.5 mg/ml. In order to determine suitable incubation times and sampling intervals, two experiments were conducted with each polypeptide. The first run served as a rough estimate of peptide stability. All sampling was performed in duplicate. Sample volume was 180 μl.
Sample clean-up was performed by addition of 20 μl of 100% TCA (final volume=200 μl; final TCA concentration=10%). The sample was vortexed for from 5 to 10 seconds to ensure equilibration, then centrifuged to spin out the precipitated proteins. Analysis was carried out on a Waters HPLC system with a WISP autoinjector, a 5μ Vydac C-18 analytical column, and a Waters 481 UV detector set at 214 nm. Injection volume was 80 μl. Initial solvent conditions were […] in Milli-Q water with a 35 minute gradient running to 63% acetonitrile/37% (0.1%) TFA at 1 ml/min.
Polypeptide substrate and metabolite peaks were ratioed to the internal standard and the duplicate sample ratios were averaged. The avenge ratio for the peptide substrate was expressed as a percentage and plotted versus time. First-order kinetics was assumed for data treatment. The rate of disappearance of the substrate was calculated using the Enzfitter program (Biosoft). Relative half-lives were determined from the relationship: […]

[3] = tested on: canine gastrointestinal tract; experiment: Contractile activity in the canine gastrointestinal tract; format: in vivo, dog; conditions: anesthetized dogs, intra-arterial injection to a duodenal segment; amount giving 50% of the calibration response to field stimulation
Procedure: Mongrel dogs of either sex were anesthetized with sodium pentobarbital 65 mg/kg intravenously. A mid-line incision was made in the abdomen. A duodenal segment was located, the terminal arteries to that segment were identified, and the closest possible artery of the appropriate size was rubbed clean of fat and fascia. A needle of suitable diameter was bent at an angle and the tip inserted in the cleaned artery. The needle was held in position in the artery for approximately 30 seconds until vascular spasm has relaxed and then a catheter assembly was inserted into the artery and tied into position with 000 silk sutures. The fine polyethylene catheter (10-15 cm) was cut to a point at one end with a needle inserted at the other end. The hub of the needle was fitted with a 3-way stopcock and the catheter assembly was filled with heparinized Krebs Ringer bicarbonate containing 10 mM glucose. A bolus of Krebs (free of air) was injected into the arterial catheter and the distribution of blanching in the segment noted. If the area was too large, collateral arteries may be tied off as long as circulation to the area was maintained. A Bass type strain gauge was then sutured to the serosa, and oriented so that circular muscle contractions can be recorded on a Beckman R611 dynograph. Silver wire electrodes were inserted subserosally on either side of the strain gauge and were connected through stimulus isolation units to a Grass S88 electrical stimulator. Electrical field stimulation was applied at 40 V 0.5 ms and 5 pps and the amplitude of the pen recorder was set to contain the contractile response.
All peptides to be injected were dissolved in Krebs and serial dilutions were prepared so that for any concentration the maximum volume to be injected was 1 ml. All solutions except stock Krebs were held on ice for the day of the experiment and discarded at the end of the day. For determination of a dose-response curve, the site was first injected with a bolus of approximately 1 ml of heparinized Krebs to provide a flush control. Peptide agonists (in volumes of 1 ml flushed with 1 ml of Krebs) were injected in logarithmic increments until a response which was maximal in amplitude was obtained. The injection site was then flushed with Krebs containing 0.1% BSA to displace any peptide remaining in the arterial line. For peptides acting at the motilin receptor, care was taken not to inject supramaximal doses as these will induce tachyphylaxis. Therefore, as responses become apparent, 0.3 or 0.5 log unit increments were used. A site was used for a dose-response determination only every 1/2 to 1 hour.
The amplitude of the calibration response to field stimulation in each site was measured and used as 100% for that site. The amplitude of the response to the agonist at each dose was determined, calculated as a % of the calibration response and plotted against the concentration. The ED50 of the response represents the amount of agonist required to produce a response which was 50% of the calibration response.

[4] = negative logarithm of the concentration displacing 50% of [125I-Tyr7, Nle13]motilin(porcine) from rabbit antral smooth muscle membranes, read-out: pIC50 (converted)

T1 sequence (G1T803 1-400): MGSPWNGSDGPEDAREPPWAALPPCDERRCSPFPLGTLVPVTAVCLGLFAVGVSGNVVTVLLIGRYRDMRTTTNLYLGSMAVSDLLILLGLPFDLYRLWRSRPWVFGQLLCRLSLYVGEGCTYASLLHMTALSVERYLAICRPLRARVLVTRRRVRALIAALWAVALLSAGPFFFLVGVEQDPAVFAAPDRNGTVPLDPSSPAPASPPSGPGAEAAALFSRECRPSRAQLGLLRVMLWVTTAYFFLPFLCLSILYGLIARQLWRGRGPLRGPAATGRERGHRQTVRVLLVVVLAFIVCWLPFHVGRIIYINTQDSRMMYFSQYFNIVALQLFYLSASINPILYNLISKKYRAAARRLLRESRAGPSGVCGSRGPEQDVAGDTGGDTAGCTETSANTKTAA
segments of rabbit duodenum, sequence (G1T803 1-400): as above

## CC[C@H](C)[C@H](NC(=O)[C@@H]1CCCN1C(=O)[C@@H](NC(=O)[C@@H](N)Cc1ccccc1)C(C)C)C(=O)N[C@@H](Cc1ccccc1)C(=O)N[C@H](C(=O)N[C@@H](Cc1ccc(O)cc1)C(=O)NCC(=O)N[C@@H](CCC(=O)O)C(=O)N[C@@H](CC(C)C)C(=O)N[C@@H](CCC(N)=O)C(=O)N[C@@H](CCCNC(=N)N)C(=O)N[C@@H](CC(C)C)C(=O)N[C@@H](CCC(N)=O)C(=O)N[C@@H](CCC(=O)O)C(=O)N[C@@H](CCCCN)C(=O)N[C@@H](CCC(=O)O)C(=O)N[C@@H](CCCNC(=N)N)C(=O)N[C@@H](CC(N)=O)C(=O)N[C@@H](CCCCN)C(=O)NCC(=O)N[C@@H](CCC(N)=O)C(=O)O)[C@@H](C)O [[Leu^13]pMOT(1-22), reference compound]
Motilin receptor; pIC50, negative logarithm of the concentration displacing 50% of [125I-Tyr7, Nle13]motilin(porcine) from rabbit antral smooth muscle membranes
  IC50: 0.661 nM
[1]
  pEC50: 8.13
[2]
  T1/2: 30.2
[3]
  ED50: 0.17 nmol

## CC[C@H](C)[C@H](NC(=O)[C@@H]1CCCN1C(=O)[C@@H](NC(=O)[C@H](Cc1ccccc1)N(C)C)C(C)C)C(=O)N[C@@H](Cc1ccccc1)C(=O)N[C@H](C(=O)N[C@@H](Cc1ccc(O)cc1)C(=O)NCC(=O)N[C@@H](CCC(=O)O)C(=O)N[C@@H](CC(C)C)C(=O)N[C@@H](C)C(=O)N[C@H](CCCNC(=N)N)C(=O)N[C@@H](CC(C)C)C(=O)N[C@H](CCCCN)C(N)=O)[C@@H](C)O (NMe2Phe-VPIFTYGELA[dR]L[dK]-NH2)
Motilin receptor; [4]
  IC50: 1.45 nM
[1]
  pEC50: 7.69
[2]
  T1/2: 47
[3]
  ED50: 0.35 nmol

## FVPIFTYGELQRLQ [[Leu^13]pMOT(1-14), reference compound]
Motilin receptor; [4]
  IC50: 4.37 nM
[1]
  pEC50: 7.55
[2]
  T1/2: 7.5
[3]
  ED50: 20.4 nmol

## CC[C@H](C)[C@H](NC(=O)[C@@H]1CCCN1C(=O)[C@@H](NC(=O)[C@H](Cc1ccccc1)NC)C(C)C)C(=O)N[C@@H](Cc1ccccc1)C(=O)N[C@H](C(=O)N[C@@H](Cc1ccc(O)cc1)C(=O)NCC(=O)N[C@@H](CCC(=O)O)C(=O)N[C@@H](CC(C)C)C(=O)N[C@@H](C)C(=O)N[C@H](CCCNC(=N)N)C(=O)N[C@@H](CC(C)C)C(=O)N[C@H](CCC(N)=O)C(N)=O)[C@@H](C)O (H-[NMeF]VPIFTYGELA[dR]L[dQ]-NH2)
Motilin receptor; [4]
  IC50: 0.851 nM
[1]
  pEC50: 7.97
[2]
  T1/2: 32.6
[3]
  ED50: 0.40 nmol

## CC[C@H](C)[C@H](NC(=O)[C@@H]1CCCN1C(=O)[C@@H](NC(=O)[C@H](Cc1ccccc1)[N+](C)(C)C)C(C)C)C(=O)N[C@@H](Cc1ccccc1)C(=O)N[C@H](C(=O)N[C@@H](Cc1ccc(O)cc1)C(=O)NCC(=O)N[C@@H](CCC(=O)O)C(=O)N[C@@H](CC(C)C)C(=O)N[C@@H](CCC(N)=O)C(=O)N[C@H](CCCNC(=N)N)C(=O)N[C@@H](CC(C)C)C(=O)N[C@@H](CCCCN)C(N)=O)[C@@H](C)O (X1-VPIFTYGELQ[dR]LK-NH2)
Motilin receptor; [4]
  IC50: 1.17 nM
[1]
  pEC50: 7.60
[2]
  T1/2: 162
[3]
  ED50: 0.15 nmol

## CC[C@H](C)[C@H](NC(=O)[C@@H]1CCCN1C(=O)[C@@H](NC(=O)[C@H](Cc1ccccc1)NC)C(C)C)C(=O)N[C@@H](Cc1ccccc1)C(=O)N[C@H](C(=O)N[C@@H](Cc1ccc(O)cc1)C(=O)NCC(=O)N[C@@H](CCC(=O)O)C(=O)N[C@@H](CC(C)C)C(=O)N[C@@H](CCC(N)=O)C(=O)N[C@H](CCCNC(=N)N)C(=O)N[C@@H](CC(C)C)C(=O)N[C@@H](CCC(N)=O)C(=O)O)[C@@H](C)O [[N-MePhe^1, D-Arg^12, Leu^13]pMOT(1-14)] (H-[NMeF]VPIFTYGELQ[dR]LQ-OH)
Motilin receptor; [4]
  IC50: 1.91 nM
[1]
  pEC50: 7.71
[2]
  T1/2: 30
[3]
  ED50: 0.40 nmol

## CC[C@H](C)[C@H](NC(=O)[C@@H]1CCCN1C(=O)[C@@H](NC(=O)[C@H](Cc1ccccc1)NC)C(C)C)C(=O)N[C@@H](Cc1ccccc1)C(=O)N[C@H](C(=O)N[C@@H](Cc1ccc(O)cc1)C(=O)NCC(=O)N[C@@H](CCC(=O)O)C(=O)N[C@@H](CC(C)C)C(=O)N[C@@H](C)C(=O)N[C@H](CCCNC(=N)N)C(=O)N[C@@H](CC(C)C)C(=O)N[C@@H](CCCCN)C(N)=O)[C@@H](C)O (H-[NMeF]VPIFTYGELA[dR]LK-NH2)
Motilin receptor; [4]
  IC50: 0.468 nM
[1]
  pEC50: 8.01
[2]
  T1/2: 34.3
[3]
  ED50: 0.30 nmol

## CC[C@H](C)[C@H](NC(=O)[C@@H]1CCCN1C(=O)[C@@H](NC(=O)[C@H](Cc1ccccc1)NC)C(C)C)C(=O)N[C@@H](Cc1ccccc1)C(=O)N[C@H](C(=O)N[C@@H](Cc1ccc(O)cc1)C(=O)NCC(=O)N[C@@H](CCC(=O)O)C(=O)N[C@@H](CC(C)C)C(=O)N[C@@H](CCC(N)=O)C(=O)N[C@@H](CCCNC(=N)N)C(=O)N[C@@H](CC(C)C)C(=O)N[C@@H](CCCCN)C(N)=O)[C@@H](C)O (H-[NMeF]VPIFTYGELQRLK-NH2)
Motilin receptor; [4]
  IC50: 0.479 nM
[1]
  pEC50: 7.74
[2]
  T1/2: 20
[3]
  ED50: 0.025 nmol

## CC[C@H](C)[C@H](NC(=O)[C@@H]1CCCN1C(=O)[C@@H](NC(=O)[C@H](Cc1ccccc1)NC)C(C)C)C(=O)N[C@@H](Cc1ccccc1)C(=O)N[C@H](C(=O)N[C@@H](Cc1ccc(O)cc1)C(=O)NCC(=O)N[C@@H](CCC(=O)O)C(=O)N[C@@H](CC(C)C)C(=O)N[C@@H](CCC(N)=O)C(=O)N[C@H](CCCNC(=N)N)C(=O)N[C@@H](CC(C)C)C(=O)N[C@@H](CCCCN)C(N)=O)[C@@H](C)O (H-[NMeF]VPIFTYGELQ[dR]LK-NH2)
[2]
  T1/2: 41
[3]
  ED50: 0.025 nmol

## CC[C@H](C)[C@H](NC(=O)[C@@H]1CCCN1C(=O)[C@@H](NC(=O)[C@H](Cc1ccccc1)[N+](C)(C)C)C(C)C)C(=O)N[C@@H](Cc1ccccc1)C(=O)N[C@H](C(=O)N[C@@H](Cc1ccc(O)cc1)C(=O)NCC(=O)N[C@@H](CCC(=O)O)C(=O)N[C@@H](CC(C)C)C(=O)N[C@@H](C)C(=O)N[C@H](CCCNC(=N)N)C(=O)N[C@@H](CC(C)C)C(=O)N[C@@H](CCCCN)C(N)=O)[C@@H](C)O (X1-VPIFTYGELA[dR]LK-NH2)
Motilin receptor; [4]
  IC50: 1.29 nM
[1]
  pEC50: 7.64
[2]
  T1/2: 125
[3]
  ED50: 0.12 nmol
